Measurements as given in US20140100290A1, “Method of treating a prostate condition” (priority 2012, published 2014).
Where two headings read alike, the source gives them in different places.

How the values were obtained:
[1] = system: LNCaP cells; experiment: XTT cell proliferation (cell viability) assay in LNCaP cells; type: cell-based; conditions: Homo sapiens, mean±S.E.M., read-out: IC50 (anti-proliferative activity, XTT)
Description: (§1) Human metastatic prostate cancer cells, LNCaP, were obtained from ATCC (Manassas, Va., USA). Cells were grown in RPMI-1640 medium supplemented with 2mM glutamine, 10% FBS, 100 U/mL penicillin, and 100 μg/mL streptomycin. LNCaP cells were maintained in a humidified atmosphere of 5% CO2 at 37° C. in T-75 flasks and were subcultured when confluent. Experiments were conducted using cells with passage numbers ranging from 5-20.
The anti-proliferative effect of carvacrol was assessed in human metastatic prostate cancer cells, LNCaP, using the XTT cell proliferation assay. This assay is a colorimetric assay that detects cellular metabolic activities. In this assay, the second generation tetrazolium dye XTT (2,3-bis (2-methoxy-4-nitiro-5-sulfophenyl)-5-[(phenylamino)-carbonyl]-2H tetrazolium hydroxide), is reduced to a soluble, brightly orange colored formazan derivative. To improve the sensitivity of XTT assay, PMS (N-methyl dibenzopyrazine methyl sulfate), an intermediate electron carrier is used. This color change is accomplished by breaking apart the positively charged quaternary tetrazole ring. Mitochondrial oxidoreductases present in viable cells are thought to contribute substantially to the XTT response with their reductants being transferred to the plasma membrane.
LNCaP cells at the density of 10,000 cells/well were seeded into flat-bottom, 96-well microtiter plates (100 μL/well) and allowed to attach and grow for 24 hours, the cells were then treated with 0.1 μM, 1 μM, 10 μM, 100 μM, 1000 μM, and 3000 μM of carvacrol for 24, 48, and 96 hours. […] After incubation, an orange colored formazan product was formed and the absorbance was read at 475 nm using BioTek microplate reader. […] Cell viability of the drug-treated cells was calculated as a fraction of solvent control and the anti-proliferative activity of carvacrol was expressed in terms in IC50 valuesIC50 values of carvacrol were calculated using GraphPad Prism 4 (GraphPad Software Inc., Calif., USA), and are expressed as the means of ±S.E.M> of n≧4 experiments, with triplicate determinations in each experiment. […]

[2] = system: LNCaP cells; experiment: Morphological analysis of LNCaP cells; type: cell-based, Human; conditions: 10 μM and 1000 μM, 48 hours, dose-dependent
Description: as §1
Prominent features of morphological changes occurring in a cell, such as cell shrinkage, rounding of cells, membrane blebbing, and formation of apoptotic bodies indicate induction of apoptosis or programmed cell death.
In order to identify the morphological changes in LNCaP cells after treatment with carvacrol, 2×10^6 cells/well were seeded in flat-bottom, 6-well microtiter plates, allowed to grow for 24 hours, treated with 10 μM and 1000 μM of carvacrol, and incubated for a further 48 hours at 37° C. Post incubation, cells were washed twice with PBS, and microscopic photographs of morphological changes of the cells were captured using a fluorescent microscope, Axiovert 200M (Carl Zeiss MicroImaging Inc, NY, USA). 1.15% EtOH was used in solvent control.

[3] = system: cytochrome c release in LNCaP cells; experiment: Western blot analysis of cytochrome c release in LNCaP cells; type: cell-based, Human; conditions: 10 μM and 1000 μM, 48 h
Description: as §1
(§2) Western blotting is a widely used analytical technique for detection of specific proteins separated from one another, according to their size, by gel electrophoresis. Application of an electric current induces proteins on the gel to move on to the membrane (nitrocellulose or PVDF) placed next to it. Proteins on the gel get transferred on to the membrane which is subsequently stained with the antibody. Once detected, the target protein will be visualized as a band on a blotting membrane, X-ray film, or an imaging system. […]
(§3) After maintaining constant agitation at 4° C. for 30 minutes, lysates were collected in microcentrifuge tubes and centrifuged at 12,000 rpm at 4° C. for 20 minutes. […] Protein concentration was determined using the Pierce® BCA protein assay kit. […] Western blot images are representative of at least 3 independent experiments, while quantification data represent mean±S.E.M. of n>3 experiments.

[4] = system: PARP cleavage in LNCaP cells; experiment: Western blot analysis of PARP cleavage in LNCaP cells; type: cell-based, Human; conditions: 48 h treatment
Description: as §1, §2, §3

## Cc1ccc(C(C)C)cc1O [Carvacrol]
[1]; 24 hours treatment
  IC50: 1670 ± 179 µM
[1]; 48 hours treatment
  IC50: 269 ± 58 µM
[1]; 96 hours treatment
  IC50: 13.7 ± 4.42 µM
[2]
  morphological changes (features of apoptosis): typical features of apoptosis like rounding of cells, membrane blebbing, cell shrinkage and formation of apoptotic bodies were observed
[3]
  cytochrome c release (Western blot, densitometry vs solvent control): dose-dependent increase in cytochrome c release
[4]
  cleavage of PARP (Western blot): demonstrated cleavage of PARP
